Test results published in patent publication US11179410B2, “Pharmaceutical composition for improving, preventing or treating muscle related disease comprising ginsenoside Rh2” (KOREA ADVANCED INSTITUTE OF SCIENCE AND TECHNOLOGY, priority 2018, dated 2021).

Assays:
Format in all cases: cell-based, mouse
[1] = test system: MSTN-induced atrophic myotube cells (C2C12); experiment: Myotube width in MSTN-induced atrophic myotubes treated with Rh2
Description: (§1) C2C12 myotube cells were fixed with 4% (w/v) paraformaldehyde (Biosesang) for 15 minutes and then treated with 0.2% (v/v) Triton X-100, and blocked with 5% (w/v) BSA for 6 h. The cells were then stained with Myosin Heavy Chain (MHC) antibody (Santa Cruz, sc-20641, 1: 1000) for 12 h at 4° C. and then incubated with Alexa Fluor 488 conjugated secondary antibody at room temperature for 4 h. Images were acquired via HCS equipment (Molecular Devices) and quantified using ImageJ software. The width of myotube cells was quantified by measuring a total of more than 100 myotube cell widths in randomly selected five regions. The width per myotube was determined as the average of three independent measurements.
To investigate the effect of Rh2 on MSTN-induced atrophy, myotubes were treated with 0.4 ug/ml MSTN alone for 24 hours or treated with combination of 0.4 ug/ml MSTN and 1 ug/ml or 10 ug/ml Rh2 (Sigma, 73658) for 24 hours. In order to measure the change of the myotube width, the myotube cells were stained with MHC antibody as in the above Experimental Example 1, and cell images were obtained using HCS, and the width of myotube was quantified using ImageJ.

pSmad2/Smad2 = experiment: Western blotting of pSmad2 in MSTN-induced atrophic myotube cells
Description: (§2) MSTN is known to induce atrophy by increasing UPP-mediated protein degradation through activation of the ActRIIB-Smad2 signaling pathway. Phosphorylated Smad2 (pSmad2) activates this UPP-mediated proteolytic signaling. Activated UPP is involved in the degradation of MyoD and is regulated by the E3 ligase, MAFbx. To investigate the mechanism of Rh2 in this signal transduction, changes of the amount of Rh2-induced phosphorylation of Smad2 and the amount of MAFbx and MyoD expression were determined. For this purpose, myotube cells were treated with 0.4 μg/ml MSTN alone, or with combination of 0.4 μg/ml MSTN and 1 μg/ml or 10 μg/ml Rh2. Western blotting was performed using pSmad2 antibody, MAFbx antibody, and MyoD antibody respectively.
(§3) The bands of Western blot and the relative fold change values of pSmad2/Smad2, MAFbx/GAPDH and MyoD/GAPDH in each treatment conditions were shown in FIG. 4.

MAFbx = experiment: Western blotting of MAFbx in MSTN-induced atrophic myotube cells
Description: as §2, §3

MyoD = experiment: Western blotting of MyoD in MSTN-induced atrophic myotube cells
Description: as §2, §3

C2C12 myotube cells = experiment: Induction of muscular atrophy cell model: myotube width after MSTN treatment; settings: 24 hours, C2C12 myotubes
Description: The model of muscular atrophy was constructed by differentiating mouse myoblast cell lines (C2C12 ATCC CRL-1772) into myotube cells followed by treating with MSTN.
Specifically, the cell lines were cultured in DMEM (Gibco) supplemented with 10% (v/v) Fetal Bovine Serum (FBS), 100 U/ml penicillin and 100 U/ml streptomycin (Sigma) at 37° C. in 5% CO2. For differentiating the cell lines into myotube cells, the cells were grown to 80-90% confluence and then cultured in DMEM supplemented with 2% (v/v) horse serum (Horse Serum, HS, Gibco). To verify the differentiation into myotube cells, the merge of multiple myoblasts to one long myotube cells were observed by the microscopic images.
In order to induce an atrophy model, differentiated myotube cells were cultured in serum-free DMEM medium for 3 hours, and then MSTN was treated with 0.4 μg/ml, […], 0.8 μg/ml and 1.2 μg respectively for 24 hours. […]
as §1, with “The cells were then stained with Myosin Heavy Chain (MHC) antibody (Santa Cruz, sc-20641, 1: 1000) for 12 h at 4° C. and then incubated with Alexa Fluor 488 conjugated secondary antibody at room temperature for 4 h.” left out

| Molecule | width of myotube as % of that of normal cells ([1]; 0.4 ug/ml MSTN + 1 ug/ml Rh2, 24 hours) | width of myotube as % of that of normal cells ([1]; 0.4 ug/ml MSTN + 10 ug/ml Rh2, 24 hours) | amount of pSmad2 (pSmad2/Smad2) relative to normal conditions (pSmad2/Smad2; 0.4 μg/ml MSTN + 10 ug/ml Rh2) | amount of MAFbx (MAFbx/GAPDH) relative to normal conditions (MAFbx; 0.4 μg/ml MSTN + 10 ug/ml Rh2) | amount of MyoD (MyoD/GAPDH) relative to normal conditions (MyoD; 0.4 μg/ml MSTN + 10 ug/ml Rh2) | decrease of width of myotube compared to the normal (C2C12 myotube cells; 0.4 ug/ml MSTN, control width = 1.0) | decrease of width of myotube compared to the normal (C2C12 myotube cells; as the concentration of MSTN increased (up to 1.2 μg)) | reduction of width of myotube compared to normal cells ([1]; 0.4 ug/ml MSTN alone, 24 hours) | amount of pSmad2 (pSmad2/Smad2), increase compared with normal condition (pSmad2/Smad2; 0.4 μg/ml MSTN alone) | amount of MAFbx (MAFbx/GAPDH), increase compared with normal condition (MAFbx; 0.4 μg/ml MSTN alone) | amount of MyoD (MyoD/GAPDH), % of the normal condition (MyoD; 0.4 μg/ml MSTN alone) |
| --- | --- | --- | --- | --- | --- | --- | --- | --- | --- | --- | --- |
| CC(C)=CCC[C@](C)(O)[C@H]1CC[C@]2(C)[C@@H]1[C@H](O)C[C@@H]1[C@@]3(C)CC[C@H](O[C@@H]4O[C@H](CO)[C@@H](O)[C@H](O)[C@H]4O)C(C)(C)[C@@H]3CC[C@]12C [Rh2, ginsenoside Rh2] | about 70% | above 100% | kept at the same level as normal conditions | kept at the same level as normal conditions | kept at the same level as normal conditions |  |  |  |  |  |  |
| Myostatin [MSTN] |  |  |  |  |  | about 45% | about 60% | about 50% | about 50% | about 50% | about 30% |
